Measured values reported in ChEMBL document CHEMBL5131452, “Cell-based screening of extracts of natural sources to search for inhibitors of the ubiquitin-proteasome system and identification of proteasome inhibitors from the fungus Remotididymella sp” (Bioorg Med Chem Lett, 2022).
pIC50: −log10 of the molar value. Activity calls are given as the source filed them. No cut-off for these calls is given here.

How the values were obtained:
[1] = system: HeLa; assay: Inhibition of UPS-mediated proteolysis in human HeLa cells expressing ODD-luciferase assessed as fold change in increase in luminescence at 2 uM using D-luciferin as substrate incubated for 4 hrs by luciferase reporter gene assay; format: cell-based
[2] = system: HeLa; assay: Inhibition of UPS-mediated proteolysis in human HeLa cells assessed as increase in ubiquitinated proteins at 2 to 24 uM incubated for 24 hrs by western blot analysis; format: cell-based; settings: dose 2-24 µM
[3] = system: HeLa; assay: Inhibition of UPS-mediated proteolysis in human HeLa cells expressing ODD-luciferase assessed as increase in luminescence at 2 to 16 uM using D-luciferin as substrate incubated for 4 hrs by luciferase reporter gene assay; format: cell-based; settings: dose 2-16 µM
[4] = system: HeLa; assay: Cytotoxicity against human HeLa cells expressing ODD-luciferase at 16 uM by MTT assay; format: toxicity, cell-based
[5] = target: T1, Proteasome subunit beta type-9 (Homo sapiens, UniProt P28065); assay: Inhibition of human proteasome subunit beta type-1i in using fluorogenic substrate by UV-spectrometry
T1 sequence (P28065 whole entry): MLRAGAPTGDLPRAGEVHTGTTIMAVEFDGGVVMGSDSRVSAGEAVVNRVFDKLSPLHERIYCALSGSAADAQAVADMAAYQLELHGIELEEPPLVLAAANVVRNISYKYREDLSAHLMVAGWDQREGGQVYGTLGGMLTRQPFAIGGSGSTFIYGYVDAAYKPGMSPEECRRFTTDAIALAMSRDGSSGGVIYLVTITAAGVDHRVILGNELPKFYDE

[6] = target: T2, Proteasome subunit beta type-10 (Homo sapiens, UniProt P40306); assay: Inhibition of human proteasome subunit beta type-2i using fluorogenic substrate by UV-spectrometry
T2 sequence (P40306 whole entry): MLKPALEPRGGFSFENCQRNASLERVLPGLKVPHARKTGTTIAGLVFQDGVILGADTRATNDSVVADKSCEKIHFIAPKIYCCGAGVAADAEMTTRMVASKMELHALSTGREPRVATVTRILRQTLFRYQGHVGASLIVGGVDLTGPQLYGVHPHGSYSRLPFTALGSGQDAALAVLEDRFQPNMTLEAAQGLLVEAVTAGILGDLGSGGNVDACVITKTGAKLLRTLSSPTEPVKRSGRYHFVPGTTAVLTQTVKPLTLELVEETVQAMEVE

[7] = target: T3, Proteasome Macropain subunit MB1 (Homo sapiens, UniProt P28074); assay: Inhibition of human constitutive proteasome subunit beta type-5 in human erythrocytes using fluorogenic substrate by UV-spectrometry; format: cell-based, Erythrocyte
T3 sequence (P28074 whole entry): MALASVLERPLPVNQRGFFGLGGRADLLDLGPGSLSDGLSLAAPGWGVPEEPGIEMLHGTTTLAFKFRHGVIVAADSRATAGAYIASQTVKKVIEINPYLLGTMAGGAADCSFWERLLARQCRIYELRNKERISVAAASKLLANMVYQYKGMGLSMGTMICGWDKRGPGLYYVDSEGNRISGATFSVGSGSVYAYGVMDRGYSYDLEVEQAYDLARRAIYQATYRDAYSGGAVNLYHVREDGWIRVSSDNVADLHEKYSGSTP

[8] = target: T4, Proteasome subunit beta type-8 (Homo sapiens, UniProt P28062); assay: Inhibition of human proteasome subunit beta type-5i using fluorogenic substrate by UV-spectrometry
T4 sequence (P28062 whole entry): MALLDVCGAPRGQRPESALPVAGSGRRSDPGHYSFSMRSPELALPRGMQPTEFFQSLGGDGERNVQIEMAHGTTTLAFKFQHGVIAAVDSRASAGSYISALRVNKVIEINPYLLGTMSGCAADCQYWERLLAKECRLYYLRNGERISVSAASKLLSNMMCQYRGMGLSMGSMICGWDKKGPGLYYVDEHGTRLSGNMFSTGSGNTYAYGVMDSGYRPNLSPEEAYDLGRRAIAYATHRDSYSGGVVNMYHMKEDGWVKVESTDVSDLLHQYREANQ

| Compound | fold change (FC) [1] | inhibition [2] | inhibition [3] | Activity [4] | pIC50 [5] | pIC50 [6] | pIC50 [7] | pIC50 [8] |
| --- | --- | --- | --- | --- | --- | --- | --- | --- |
| CCC(C)/C=C(\C)C1=Cc2cc3c(c(O)c2CO1)C(=O)C(=O)C(OC)=C3 (centres undefined) | 2.5 | Active | Active | Toxic | – | – | – | – |
| CCC(C)/C=C(\C)c1cc2c(cn1)C(=O)c1c(cc(OC)c(O)c1O)C2=O (centres undefined) | – | – | – | – | < 4.30 | 4.37 | 4.80 | 4.40 |
| CCC(C)/C=C(\C)c1cc2c(cn1)C(=O)C1=C(N)C(=O)C(OC)=CC1=C2 (centres undefined) | – | – | Active | Toxic | < 4.30 | 4.48 | 4.66 | 4.70 |
| CCC(C)/C=C(\C)C1=Cc2cc3c(c(O)c2CO1)C(=O)C(O)(CC(C)=O)C(OC)=C3 (centres undefined) | – | – | Active | – | < 4.30 | 4.52 | 4.34 | 4.30 |
